The supplement of paper PMC10307832

Legend:
GSK-J4 + Trametinib = compound: CCOC(=O)CCNc1cc(N2CCc3ccccc3CC2)nc(-c2ccccn2)n1 [GSK-J4] + CC(=O)Nc1cccc(-n2c(=O)n(C3CC3)c(=O)c3c(Nc4ccc(I)cc4F)n(C)c(=O)c(C)c32)c1 [Trametinib] (partner 0.02 µM); assay: relative viability (nuclei count vs DMSO), 5 days (fraction); higher = more cells survive
Method in brief: (§1)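 A single step with final 0.05% Triton X-100, 1% formaldehyde and 1 ug/ml Hoechst fixed the cells and stained nuclei 5 days after treatment. Lung cancer cell lines in 1536-well plates had been treated by pin tool the day after seeding with one drug alone or a fixed anchor-drug dose plus five library-drug doses (not always all listed) in √10 steps, and nuclei were counted on 4× images. Relative viability is the ratio of nuclei in treated wells to nuclei in vehicle wells, taken as the median of duplicate plates.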

AZ3146 + Dasatinib = compound: CN1CCC(CC1)OC2=CC(=C(C=C2)NC3=NC=C4C(=N3)N(C(=O)N4C)C5CCCC5)OC [AZ3146] + Cc1nc(Nc2ncc(C(=O)Nc3c(C)cccc3Cl)s2)cc(N2CCN(CCO)CC2)n1 [Dasatinib] (partner 0.075 µM); assay: as above
Method in brief: as §1

Cell Line	relative viability (GSK-J4 + Trametinib; first compound 0.5 µM)	relative viability (GSK-J4 + Trametinib; first compound 1.581 µM)	relative viability (GSK-J4 + Trametinib; first compound 5 µM)	relative viability (GSK-J4 + Trametinib; first compound 15.81 µM)	relative viability (GSK-J4 + Trametinib; first compound 50 µM)	relative viability (AZ3146 + Dasatinib; first compound 0.253 µM)	relative viability (AZ3146 + Dasatinib; first compound 0.8 µM)	relative viability (AZ3146 + Dasatinib; first compound 2.53 µM)	relative viability (AZ3146 + Dasatinib; first compound 8 µM)	relative viability (AZ3146 + Dasatinib; first compound 0.08 µM)
HCC-44	1.1	0.91	1.06	1.04	1.03	–	–	–	–	–
EPLC-272H	0.328	0.251	0.325	0.272	0.232	0.396	0.347	0.413	0.287	–
NCI-H322M	0.513	0.482	0.623	0.457	0.503	0.248	0.24	0.251	0.285	0.236
SK-MES-1	0.56	0.582	0.497	0.489	0.478	0.311	0.387	0.316	0.258	0.42
NCI-H2170	0.852	0.882	0.958	0.872	0.829	0.455	0.598	0.61	0.491	0.497
NCI-H2342	0.819	0.752	0.866	0.917	0.946	0.275	0.29	0.29	0.345	0.293
H3255	0.656	–	0.53	0.48	0.541	0.242	0.339	0.374	0.405	0.258
EKVX	0.337	–	0.515	0.307	0.21	0.572	0.5	0.565	0.535	0.434
NCI-H1993	0.514	0.504	0.497	0.544	0.532	0.563	0.677	0.643	0.475	0.537
NCI-H650	0.949	0.871	–	0.771	0.745	0.428	0.435	0.482	0.491	0.351
NCI-H460	0.258	–	0.143	0.0717	0.0851	0.485	0.484	0.463	0.476	0.463
NCI-H1437	0.478	0.444	0.553	0.491	0.29	0.373	0.447	0.368	0.51	0.327
NCI-H2347	0.25	0.273	0.275	0.32	0.285	0.248	0.294	0.316	0.379	0.303
NCI-H522	0.817	0.6	–	0.75	0.7	0.73	0.863	0.815	1.02	0.721
LCLC-103H	0.68	0.64	0.674	0.622	0.626	0.354	0.472	0.551	0.422	0.532
NCI-H661	0.583	0.582	0.5	0.462	0.418	0.859	0.927	0.765	0.459	0.867
NCI-H1944	0.4	0.394	–	0.307	0.357	0.194	0.214	0.239	0.229	0.171

Cell Line	relative viability (GSK-J4 + Trametinib; first compound 0.5 µM)	relative viability (GSK-J4 + Trametinib; first compound 1.581 µM)	relative viability (GSK-J4 + Trametinib; first compound 5 µM)	relative viability (GSK-J4 + Trametinib; first compound 15.81 µM)	relative viability (GSK-J4 + Trametinib; first compound 50 µM)	relative viability (AZ3146 + Dasatinib; first compound 0.253 µM)	relative viability (AZ3146 + Dasatinib; first compound 0.8 µM)	relative viability (AZ3146 + Dasatinib; first compound 2.53 µM)	relative viability (AZ3146 + Dasatinib; first compound 8 µM)	relative viability (AZ3146 + Dasatinib; first compound 0.08 µM)
NCI-H358	0.145	–	0.157	0.118	0.131	0.135	0.149	0.153	0.209	0.2
NCI-H2126	0.567	0.575	0.566	0.503	0.503	0.629	0.56	0.628	0.523	0.575
HCC-78	0.765	0.706	1.15	0.559	1.02	0.304	0.309	0.354	0.315	0.254
PC-14	0.68	0.663	0.503	0.738	0.691	0.268	0.259	0.229	0.0367	0.271
NCI-H520	0.625	0.486	0.577	0.559	0.472	0.171	0.197	0.592	0.19	0.166
LXF-289	0.696	0.592	0.688	0.654	0.584	0.241	0.172	0.227	0.18	0.276
NCI-H441	0.498	0.386	0.492	0.383	0.352	0.68	0.922	0.497	0.536	0.636
NCI-H596	0.797	0.759	0.639	0.725	0.771	0.582	0.581	0.636	0.538	0.56
NCI-H727	0.405	0.393	0.378	0.385	0.331	0.378	0.324	0.362	0.384	0.418
NCI-H838	0.566	0.455	0.223	0.436	0.332	0.303	0.269	0.331	0.269	0.408
NCI-H1793	0.432	0.375	0.336	0.28	0.228	0.412	0.404	0.348	0.423	0.303
NCI-H1792	0.523	0.44	0.468	0.39	0.38	0.855	–	0.808	0.822	0.737
NCI-H1355	0.371	0.4	0.486	0.396	0.327	0.644	0.767	0.68	0.726	0.654
HARA	0.6	0.799	–	0.516	0.471	0.211	0.254	0.217	0.302	0.274
201T	0.719	0.615	0.711	0.735	0.69	0.59	0.511	0.609	0.625	0.548
NCI-H23	0.354	0.367	0.393	0.285	0.34	0.767	0.612	0.756	0.97	0.894
LC-2-ad	0.847	0.76	0.835	0.908	0.886	0.746	0.584	0.665	0.527	0.549
